In experiment [1] the target is α-N-Acetyl-galaktosaminidase. The experiment can be described thus: Inhibition of α-N-acetylgalactosaminidase. The note with it: α-N-Acetyl-galaktosaminidase aus Charonia lampas; read-out: IC₅₀. Type of experiment: biochemical.
In experiment [2] the test system is UDP-gal NAc: polypeptid-α-N-acetylgalaktosaminyl-transferase. The experiment can be described thus: Inhibition of polypeptide α-N-acetylgalactosaminyl transferase activity. The settings on record: qualitative statement, no value given. Type of experiment: biochemical.
For a further experiment, the system named is Glykoproteinen. Description: Effect on half-life of glycoproteins. The settings on record: qualitative statement, no value given.
In a further experiment the test system is Glukosidasen. The settings on record: known from Angew. Chem. 93, 738 (1981); cited from earlier work.

For `CC(=O)N[C@H]1CN[C@H](CO)[C@H](O)[C@@H]1O` [If, 2-N-Acetyl-1,2,5-tridesoxy-1,5-imino-D-galaktit], the IC50 in experiment [1] turned out to be 1400 nM. The “Aktivität der UDP-gal NAc: polypeptid-α-N-acetylgalaktosaminyl-transferase” value in experiment [2] is given as “inhibiert”. Moreover, in the experiment with Glykoproteinen, the “Halbwertszeit von Glykoproteinen” value is on record as “erhöht”.
For `OC[C@H]1NC[C@H](O)[C@@H](O)[C@@H]1O` [1-Desoxynojirimycin], the “Hemmwirkung auf Glukosidasen” value in the experiment on Glukosidasen is reported as “Hemmwirkung”.

These data come from EP0298350A2, “Chiral 6-hydroxymethyl-3-amino-4,5-dihydroxy piperidines, their intermediates, processes for their preparation and their use” (BAYER AG, priority 1987, dated 1989).
